{
  "source": "patent US20210275443A1",
  "about": "“SUSTAINED-RELEASE INJECTION PREPARATION CONTAINING DONEPEZIL DERIVATIVE” (NANJING NORATECH PHARMACEUTICAL CO., LTD., priority 2018, published 2021)",
  "settings": "after i.m. administration of the suspension",
  "description": "There were 3 animals in each group. […] The whole blood was centrifuged to collect plasma, which was transferred to a 96-well plate, and stored at −20° C. for detection by LC-MS/MS. The drug concentration at each sampling time was determined by measuring the standard curve of reference donepezil in plasma.",
  "data": [
    {"smiles": "CCCCCCC(=O)OC1=C(CC2CCN(Cc3ccccc3)CC2)Cc2cc(OC)c(OC)cc21", "note": "[donepezil heptanoate, Donepezil Heptanoate]", "values": [
      {"measurement": "Metabolism of the prodrug into donepezil after administration", "value": "rapidly metabolized into donepezil"}
    ]}
  ]
}
